Source: ChEMBL document CHEMBL1201862, “PubChem BioAssay data set” (2004)
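Step 1: Grow cells in 96-well plates. Step 2: Expose to compound for 48 hours at 5 concentrations. Step 3: Interpolate endpoints linearly; if unreached, use highest concentration. GI50 = concentration required for 50% inhibition of growth.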 Activity calls are given as the source filed them. Cut-off read from the data, not from the text of the source: active = GI50 up to about 1.1 µM and inactive = higher.

Legend:
Experiment in all cases: NCI tumour cell line growth inhibition, 48 h
786-0 = system: 786-0
HCT-116 = system: HCT-116
HCT-15 = system: HCT-15
HL-60 = system: HL-60
HOP-62 = system: HOP-62
HOP-92 = system: HOP-92
IGROV-1 = system: IGROV-1
KM12 = system: KM12
LOX IMVI = system: LOX IMVI
MDA-MB-231 = system: MDA-MB-231
MDA-MB-435 = system: MDA-MB-435
MOLT-4 = system: MOLT-4
SF-539 = system: SF-539
SNB-75 = system: SNB-75
SR = system: SR
SW-620 = system: SW-620
TK-10 = system: TK-10
U-251 = system: U-251
UACC-257 = system: UACC-257
A498 = system: A498

| Structure (SMILES) | GI50 (786-0) | GI50 (HCT-116) | GI50 (HCT-15) [µM] | GI50 (HL-60) | GI50 (HOP-62) | GI50 (HOP-92) | GI50 (IGROV-1) | GI50 (KM12) | GI50 (LOX IMVI) | GI50 (MDA-MB-231) | GI50 (MDA-MB-435) | GI50 (MOLT-4) | GI50 (SF-539) | GI50 (SNB-75) | GI50 (SR) | GI50 (SW-620) | GI50 (TK-10) | GI50 (U-251) | GI50 (UACC-257) | GI50 (A498) |
| --- | --- | --- | --- | --- | --- | --- | --- | --- | --- | --- | --- | --- | --- | --- | --- | --- | --- | --- | --- | --- |
| O=C(Nc1ccc2cc3ccccc3cc2c1)c1cc2c(cc1Cl)Sc1nccn1S2(=O)=O | 4.73 µM (inactive) | 3.85 µM (inactive) | 20.7 | 17.7 µM (inactive) | 59.6 µM (inactive) | 42 µM (inactive) | 15.9 µM (inactive) | 33.7 µM (inactive) | 16.8 µM (inactive) | 8.97 µM (inactive) | 28.4 µM (inactive) | 33.4 µM (inactive) | 7.8 µM (inactive) | 13.3 µM (inactive) | 35.2 µM (inactive) | 13.9 µM (inactive) | 16 µM (inactive) | 5.48 µM (inactive) | 58.3 µM (inactive) | – |
| Cc1ccc([C@@H]2[C@@H](C(=O)c3ccccn3)[C@H](c3ccc(C)cc3)C[C@](O)(c3ccccn3)[C@H]2C(=O)c2ccccn2)cc1 | 1.81 µM (inactive) | 2.89 µM (inactive) | 1.77 | 2.52 µM (inactive) | 5.73 µM (inactive) | 4.61 µM (inactive) | 4.53 µM (inactive) | 7.98 µM (inactive) | 2.84 µM (inactive) | > 32 µM (inactive) | 8.22 µM (inactive) | 2.07 µM (inactive) | 2.08 µM (inactive) | 3.33 µM (inactive) | 0.495 µM (active) | > 22.6 µM (inactive) | 6.05 µM (inactive) | 2.77 µM (inactive) | 8.04 µM (inactive) | – |
| Nc1ccc(-c2nnc(-c3c(Cl)c(Cl)c(Cl)c(Cl)c3-c3nc4cc(C(=O)c5ccccc5)ccc4[nH]3)o2)cc1 | 17.1 µM (inactive) | 20.6 µM (inactive) | 15.7 | – | 21.6 µM (inactive) | 27.2 µM (inactive) | 28.5 µM (inactive) | 27.9 µM (inactive) | 34.6 µM (inactive) | 19.3 µM (inactive) | 4.95 µM (inactive) | 15.9 µM (inactive) | 14.2 µM (inactive) | 24 µM (inactive) | 5.16 µM (inactive) | 29.5 µM (inactive) | 27.5 µM (inactive) | 18.1 µM (inactive) | 48.4 µM (inactive) | 18.5 µM (inactive) |
| COc1ccccc1Cc1ccc(C2C=CC3(CC(=O)C=C3C)C(=O)C2)o1 (stereo unspecified) | 20.2 µM (inactive) | 27.2 µM (inactive) | 25.6 | 17.7 µM (inactive) | 15 µM (inactive) | 20.5 µM (inactive) | 29.2 µM (inactive) | 29 µM (inactive) | 17.3 µM (inactive) | 21 µM (inactive) | 19.4 µM (inactive) | 16 µM (inactive) | 18.6 µM (inactive) | – | 18.4 µM (inactive) | 18.5 µM (inactive) | 39.5 µM (inactive) | 16.3 µM (inactive) | 22.4 µM (inactive) | 20 µM (inactive) |
| CCOC(=O)/C=C(\C(=O)OCC)n1ccc(N)nc1=O | > 100 µM (inactive) | > 100 µM (inactive) | > 100 | 26.6 µM (inactive) | > 100 µM (inactive) | 57.4 µM (inactive) | > 100 µM (inactive) | > 100 µM (inactive) | 88.7 µM (inactive) | > 100 µM (inactive) | 94.6 µM (inactive) | 97.1 µM (inactive) | > 100 µM (inactive) | > 100 µM (inactive) | 87.7 µM (inactive) | 56.4 µM (inactive) | > 100 µM (inactive) | 72.3 µM (inactive) | > 100 µM (inactive) | – |
| CC(=O)c1cc(CC2Cc3cc4c(cc3C2=O)CCC4)cc2c1CCC2 (stereo unspecified) | 80 µM (inactive) | 26.1 µM (inactive) | 44.1 | 8.65 µM (inactive) | > 100 µM (inactive) | – | > 100 µM (inactive) | 37.2 µM (inactive) | 24 µM (inactive) | 29.7 µM (inactive) | 32.2 µM (inactive) | 18.5 µM (inactive) | 70.5 µM (inactive) | 33.3 µM (inactive) | 29.9 µM (inactive) | 49.5 µM (inactive) | 38.5 µM (inactive) | 33.7 µM (inactive) | 29.9 µM (inactive) | 84.7 µM (inactive) |
| CCOC(=O)c1ccc(C(=O)/C(C(C)=O)=C2\CCCN2C)n1C | > 100 µM (inactive) | 30.6 µM (inactive) | 68.7 | 18.5 µM (inactive) | 57.9 µM (inactive) | – | > 100 µM (inactive) | 29.1 µM (inactive) | 53.8 µM (inactive) | 27.5 µM (inactive) | > 100 µM (inactive) | 23.1 µM (inactive) | 0.303 µM (active) | 10.9 µM (inactive) | 28.9 µM (inactive) | 69.7 µM (inactive) | > 100 µM (inactive) | 86.5 µM (inactive) | > 100 µM (inactive) | 65.8 µM (inactive) |
| Cn1c(-c2ccc[se]2)ccc1-c1ccc(CO)[se]1 | 25.6 µM (inactive) | 0.826 µM (active) | 18.3 | 10 µM (inactive) | – | 7.41 µM (inactive) | < 0.01 µM (active) | 32.1 µM (inactive) | 21.8 µM (inactive) | 32.6 µM (inactive) | 17.3 µM (inactive) | 21.1 µM (inactive) | 26.9 µM (inactive) | > 49.4 µM (inactive) | 10.4 µM (inactive) | 0.133 µM (active) | 0.0129 µM (active) | < 0.0129 µM (active) | 0.0461 µM (active) | 0.0389 µM (active) |
| CC1C(C)(C)C23CC12C1(OCCO1)C3Br (stereo unspecified) | > 100 µM (inactive) | > 100 µM (inactive) | > 100 | > 100 µM (inactive) | > 100 µM (inactive) | – | > 100 µM (inactive) | > 100 µM (inactive) | > 100 µM (inactive) | > 100 µM (inactive) | > 100 µM (inactive) | > 100 µM (inactive) | > 100 µM (inactive) | > 100 µM (inactive) | > 100 µM (inactive) | > 100 µM (inactive) | > 100 µM (inactive) | > 100 µM (inactive) | > 100 µM (inactive) | > 100 µM (inactive) |
| C/C(=N\Nc1nc2ccccc2[nH]1)c1cccc[n+]1[O-] | > 100 µM (inactive) | 88.3 µM (inactive) | 51.5 | – | > 100 µM (inactive) | 33.9 µM (inactive) | 63.4 µM (inactive) | 44.7 µM (inactive) | 56.6 µM (inactive) | > 100 µM (inactive) | > 100 µM (inactive) | > 100 µM (inactive) | > 100 µM (inactive) | – | 30.1 µM (inactive) | > 100 µM (inactive) | 67.1 µM (inactive) | 75 µM (inactive) | > 100 µM (inactive) | > 100 µM (inactive) |
| Cc1ccc([N+](=O)[O-])cc1S(=O)(=O)Nc1ccc(C2=NN(S(=O)(=O)c3cc([N+](=O)[O-])ccc3C)C(c3cccs3)C2)cc1 (stereo unspecified) | 44.2 µM (inactive) | 26.5 µM (inactive) | 33.2 | 32.9 µM (inactive) | 30.1 µM (inactive) | 33.7 µM (inactive) | 46.3 µM (inactive) | 30.1 µM (inactive) | 57 µM (inactive) | 24.9 µM (inactive) | 50 µM (inactive) | 22.4 µM (inactive) | – | > 100 µM (inactive) | 24.1 µM (inactive) | 49.7 µM (inactive) | 38.6 µM (inactive) | 30.1 µM (inactive) | 31.5 µM (inactive) | 13.8 µM (inactive) |
| FC(F)(Sc1ccccc1)c1nc2ccccc2o1 | 91.6 µM (inactive) | 28.6 µM (inactive) | 22 | – | > 100 µM (inactive) | 12.5 µM (inactive) | > 100 µM (inactive) | 57 µM (inactive) | – | > 100 µM (inactive) | 95.3 µM (inactive) | 13.8 µM (inactive) | 63.8 µM (inactive) | – | 22 µM (inactive) | 61.1 µM (inactive) | 75.2 µM (inactive) | 21.9 µM (inactive) | > 100 µM (inactive) | 92.7 µM (inactive) |
| COC(=O)C/N=C1\NC(=S)N(Cc2ccc(OC)cc2)C12CCCC2 | > 100 µM (inactive) | > 100 µM (inactive) | > 100 | – | > 100 µM (inactive) | > 100 µM (inactive) | – | > 100 µM (inactive) | – | > 100 µM (inactive) | > 100 µM (inactive) | > 100 µM (inactive) | > 100 µM (inactive) | > 100 µM (inactive) | > 100 µM (inactive) | > 100 µM (inactive) | – | > 100 µM (inactive) | > 100 µM (inactive) | > 100 µM (inactive) |
| CSC1=N/C(=C\c2ccco2)C(=O)N1CN1CCCCC1 | 54.6 µM (inactive) | 50.4 µM (inactive) | 38.4 | – | > 100 µM (inactive) | 28.4 µM (inactive) | 89.9 µM (inactive) | > 100 µM (inactive) | 33.7 µM (inactive) | > 100 µM (inactive) | > 100 µM (inactive) | 71.3 µM (inactive) | – | > 100 µM (inactive) | > 100 µM (inactive) | 36.1 µM (inactive) | > 100 µM (inactive) | > 100 µM (inactive) | – | > 100 µM (inactive) |
| CCOC(OCC)N1C(=O)C2(C(OCC)OCC)CC3C(OC(=O)N3N)c3cccc1c32 (stereo unspecified) | > 100 µM (inactive) | > 100 µM (inactive) | > 100 | > 100 µM (inactive) | > 100 µM (inactive) | – | > 100 µM (inactive) | > 100 µM (inactive) | > 100 µM (inactive) | > 100 µM (inactive) | > 100 µM (inactive) | 79.4 µM (inactive) | > 100 µM (inactive) | – | > 100 µM (inactive) | > 100 µM (inactive) | > 100 µM (inactive) | > 100 µM (inactive) | > 100 µM (inactive) | 61.2 µM (inactive) |
